“Also recorded” adds a separate entry of the source. Read-outs that look alike come from different tables or passages of the source.
What was measured:
[1] = tested on: Nrf2-dependent ARE transcriptional activity; assay: ARE-luc luciferase reporter gene assay in HepG2 cells (qHTS); assay type: cell-based; settings: for Emax: read-out: ARE-luc Efficacy
mutated ARE = assay type: cell-based; settings: for ARE-bla mutant Efficacy: normalized to DMSO (0%) and ARE-bla maximal β-napthoflavone response (100%)
[2] = tested on: antioxidant response element (ARE) signaling pathway; assay: ARE-bla β-lactamase reporter gene assay in HepG2 cells (qHTS); assay type: cell-based, human
[3] = confirmation/follow-up studies, HepG2, 16 hr exposure, mean ± SD
[4] = follow-up studies, up to 46 µM, listed as 1,10-phenanthroline monohydrate
[5] = confirmation/follow-up studies, HepG2, mean ± SD
[6] = primary qHTS screening, 0.59 nM to 92 µM
[7] = Homo sapiens, HepG2, confirmation/follow-up studies, activation of ARE reporter as % of positive control (β-napthoflavone)
[8] = Homo sapiens, confirmation/follow-up studies, HepG2, 16 hr exposure, mean ± SD, read-out: ARE-luc EC50
[9] = Homo sapiens, HepG2, confirmation/follow-up studies, activation of ARE reporter as % of positive control (β-napthoflavone), read-out: ARE-bla Efficacy
[10] = Homo sapiens, confirmation/follow-up studies, HepG2, 16 hr exposure, mean ± SD, read-out: ARE-bla EC50
[11] = Homo sapiens, HepG2, confirmation/follow-up studies, […], read-out: ARE-bla Efficacy
[12] = confirmation/follow-up studies, HepG2, 16 hr exposure, mean ± SD, read-out: ARE-luc EC50
[13] = confirmation/follow-up studies, […]
[14] = confirmation/follow-up studies, HepG2, 16 hr exposure, mean ± SD, read-out: ARE-bla EC50
[15] = follow-up studies, up to 46 µM, listed as 3-dimethylaminophenol
[16] = Homo sapiens, HepG2, confirmation/follow-up studies, […]
[17] = follow-up studies, up to 46 µM, listed as chlorambucil
[18] = confirmation/follow-up studies, activation of ARE reporter as % of positive control (β-napthoflavone)

1,3-Dinitronapthalene
ARE-luc Efficacy [1]: 180%
EC50 ([1]; read-out: ARE-luc EC50): 16.2 ± 11 µM
ARE-bla mutant IC50 (mutated ARE): inactive
ARE-bla Efficacy [2]: 80%
EC50 ([2]; read-out: ARE-bla EC50): 1.2 ± 0.2 µM

O.c1cnc2c(c1)ccc1cccnc12 [1,10-Phenanthroline monohydrate]
ARE-luc EC50 [1, 3]: inactive
activity in ARE-luc assay (words) ([1]; follow-up studies, up to 46 µM): inactive in all assays
activity in ARE-luc assay (words) [1, 4]: inactive across all assays
ARE-bla mutant IC50 (mutated ARE; [5]): inactive
activity in ARE-bla-mut assay (words) (mutated ARE; follow-up studies, up to 46 µM): inactive in all assays
activity in ARE-bla-mut assay (words) (mutated ARE; [4]): inactive across all assays
activity in ARE-bla assay (words) ([2]; follow-up studies, up to 46 µM): inactive in all assays
activity in ARE-bla assay (words) [2, 4]: inactive across all assays
activity in ARE-bla assay (words) [2, 6]: showed activity

O=[N+]([O-])c1cc(Cl)c(Cl)c(Cl)c1Cl [2,3,4,5-Tetrachloronitrobenzene]
Emax [1, 7]: 124%
EC50 [1, 8]: 27.7 ± 6.7 µM
ARE-bla mutant IC50 (mutated ARE; [5]): inactive
Emax [2, 9]: 56%
EC50 [2, 10]: 9.4 ± 3.2 µM

Nc1cc(Cl)ccc1O [2-Amino-4-chlorophenol]
Emax [1, 7]: 175%
EC50 [1, 8]: 6.3 ± 2.1 µM
ARE-bla mutant IC50 (mutated ARE; [5]): inactive
Emax [2, 11]: 72%
EC50 [2, 10]: 7 ± 1.8 µM

Cc1cccc2sc(N)nc12 [2-Amino-4-methylbenzothiazole]
ARE-luc EC50 [1, 3]: inactive
ARE-bla mutant IC50 (mutated ARE; [5]): inactive
Emax [2, 9]: 49%
EC50 [2, 10]: 10.1 ± 2.1 µM
activity in ARE-bla assay (words) ([2]; follow-up studies, up to 46 µM): active only in the ARE-bla assay

Cc1ccc(O)c(N)c1 [2-Amino-4-methylphenol]
Emax [1, 7]: 90%
EC50 [1, 8]: 24 ± 7.1 µM
ARE-bla mutant IC50 (mutated ARE; [5]): inactive
Emax [2, 9]: 76%
EC50 [2, 10]: 12 ± 4.8 µM

Nc1nc2ccc([N+](=O)[O-])cc2s1 [2-Amino-6-nitrobenzothiazole]
ARE-luc EC50 [1, 3]: inactive
ARE-bla mutant IC50 (mutated ARE; [5]): inactive
Emax [2, 9]: 107%
EC50 [2, 10]: 16.7 ± 9.6 µM
activity in ARE-bla assay (words) ([2]; follow-up studies, up to 46 µM): active only in the ARE-bla assay

Nc1ccc(N)c(Cl)c1.O=S(=O)(O)O [2-Chloro-p-phenylenediamine SO4]
EC50 [1, 12]: 26.5 ± 6 µM
ARE-luc Efficacy [1, 13]: 83%
ARE-bla mutant IC50 (mutated ARE; [5]): inactive
EC50 [2, 14]: 17.1 ± 4.1 µM
ARE-bla Efficacy [2, 13]: 72%

Nc1cc(Cl)cc(Cl)c1 [3,5-Dichloroaniline]
ARE-luc EC50 [1, 3]: inactive
ARE-bla mutant IC50 (mutated ARE; [5]): inactive
ARE-bla EC50 [2, 3]: inactive

CN(C)c1cccc(O)c1 [3-Dimethylaminophenol]
activity in ARE-luc assay (words) ([1]; follow-up studies, up to 46 µM): inactive in all assays
activity in ARE-luc assay (words) [1, 15]: inactive
ARE-bla mutant IC50 (mutated ARE; [5]): inactive
activity in ARE-bla-mut assay (words) (mutated ARE; follow-up studies, up to 46 µM): inactive in all assays
activity in ARE-bla assay (words) ([2]; follow-up studies, up to 46 µM): inactive in all assays
activity in ARE-bla assay (words) [2, 15]: inactive

Nc1ccc(Cl)cc1N [4-Chloro-o-phenylenediamine]
Emax [1, 16]: 111%
EC50 [1, 8]: 27.2 ± 3.7 µM
ARE-bla mutant IC50 (mutated ARE; [5]): inactive
activity in ARE-bla assay (words) ([2]; follow-up studies, up to 46 µM): inactive
activity in ARE-bla assay (words) [2, 6]: showed activity

CCOCN(C(=O)CCl)c1c(C)cccc1CC [Acetochlor]
Emax [1, 7]: 78%
EC50 [1, 8]: 21.9 ± 5.3 µM
activity in ARE-luc assay (words) ([1]; follow-up studies, up to 46 µM): active; also recorded: demonstrated activity
activity in ARE-luc assay (words) [1, 6]: high-quality active
ARE-bla mutant IC50 (mutated ARE; [5]): inactive
Emax [2, 9]: 86%
EC50 [2, 10]: 4.7 ± 1.6 µM
activity in ARE-bla assay (words) ([2]; follow-up studies, up to 46 µM): active; also recorded: demonstrated activity
activity in ARE-bla assay (words) [2, 6]: high-quality active

c1ccc2c(c1)-c1cccc3c1c-2cc1ccccc13 [Benzo(b)fluoranthene]
Emax [1, 16]: 19%
EC50 [1, 8]: 1.3 ± 1 µM
activity in ARE-bla-mut assay (words) (mutated ARE): may exhibit autofluorescence
ARE-bla mutant Efficacy (mutated ARE; confirmation/follow-up studies): 134%
Emax [2, 11]: 136%
EC50 [2, 10]: 5.9 ± 3 µM

c1ccc2cc3c(cc2c1)-c1cccc2cccc-3c12 [Benzo(k)fluoranthene]
Emax [1, 16]: 103%
EC50 [1, 8]: 4.9 ± 2.2 µM
activity in ARE-bla-mut assay (words) (mutated ARE): may exhibit autofluorescence
ARE-bla mutant Efficacy (mutated ARE; confirmation/follow-up studies): 160%
Emax [2, 11]: 114%
EC50 [2, 10]: 1.6 ± 0.7 µM

CC(C)(c1ccc(O)cc1)c1ccc(O)cc1 [Bisphenol A]
ARE-luc EC50 [1, 3]: inactive
ARE-bla mutant IC50 (mutated ARE; [5]): inactive
Emax [2, 9]: 48%
EC50 [2, 10]: 12.5 ± 5.6 µM

[Cd+2].[Cl-].[Cl-] [Cadmium II chloride]
ARE-luc Efficacy [1]: 446
EC50 ([1]; read-out: ARE-luc EC50): 1.1 ± 0.1 µM
ARE-bla mutant IC50 (mutated ARE): inactive
ARE-bla EC50 [2]: inactive

O=C(O)CCCc1ccc(N(CCCl)CCCl)cc1 [Chlorambucil, reference compound]
ARE-luc EC50 [1, 3]: inactive
activity in ARE-luc assay (words) ([1]; follow-up studies, up to 46 µM): inactive in all assays
activity in ARE-luc assay (words) [1, 17]: inactive across all assays
ARE-bla mutant IC50 (mutated ARE; [5]): inactive
activity in ARE-bla-mut assay (words) (mutated ARE; follow-up studies, up to 46 µM): inactive in all assays
activity in ARE-bla-mut assay (words) (mutated ARE; [17]): inactive across all assays
ARE-bla EC50 [2, 3]: inactive
activity in ARE-bla assay (words) ([2]; follow-up studies, up to 46 µM): inactive in all assays
activity in ARE-bla assay (words) [2, 17]: inactive across all assays

O=C(O)C1C(C(=O)O)C2(Cl)C(Cl)=C(Cl)C1(Cl)C2(Cl)Cl (stereo not shown) [Chlorendic acid]
ARE-luc EC50 [1]: inactive
ARE-bla mutant IC50 (mutated ARE): inactive
ARE-bla EC50 [2]: inactive

COc1cc(/C=C/C(=O)CC(=O)/C=C/c2ccc(O)c(OC)c2)ccc1O [Curcumin]
Emax [1, 7]: 165%
EC50 [1, 8]: 10.8 ± 0.7 µM
activity in ARE-luc assay (words) [1, 6]: high-quality active
ARE-bla mutant IC50 (mutated ARE; [5]): inactive
Emax [2, 9]: 21%
EC50 [2, 10]: 3.2 ± 3.2 µM
activity in ARE-bla assay (words) [2, 6]: high-quality active

O=C1c2ccccc2C(=O)C1c1ccc2ccccc2n1 [D & C Yellow II]
EC50 [1, 12]: 1.2 ± 0.7 µM
ARE-luc Efficacy [1, 18]: 185%
ARE-bla mutant Efficacy (mutated ARE; confirmation/follow-up studies): 48%
activity in ARE-bla-mut assay (words) (mutated ARE; follow-up studies, up to 46 µM): may exhibit autofluorescence
EC50 [2, 14]: 0.7 ± 0.1 µM
ARE-bla Efficacy [2, 18]: 88%

CN1CSC(=S)N(C)C1 [Dazomet]
Emax [1, 16]: 22%
EC50 [1, 8]: 26.6 ± 2.2 µM
ARE-bla mutant IC50 (mutated ARE; [5]): inactive
Emax [2, 11]: 55%
EC50 [2, 10]: 20.1 ± 6.6 µM

ClC1=C(Cl)[C@]2(Cl)[C@@H]3[C@@H]4C[C@@H]([C@H]5O[C@@H]45)[C@@H]3[C@@]1(Cl)C2(Cl)Cl [Dieldrin]
Emax [1, 16]: 27%
EC50 [1, 8]: 14.2 ± 15 µM
ARE-bla mutant IC50 (mutated ARE; [5]): inactive
Emax [2, 11]: 40%
EC50 [2, 10]: 15.5 ± 11.8 µM

O=c1cc(-c2ccccc2)oc2ccccc12 [Flavone]
Emax [1, 7]: 47%
EC50 [1, 8]: 7.6 ± 0.5 µM
ARE-bla mutant IC50 (mutated ARE; [5]): inactive
Emax [2, 9]: 80%
EC50 [2, 10]: 2.4 ± 0.6 µM

C[S@@+]([O-])CCCCN=C=S [L-sulforaphane]
activity in ARE-luc assay (words) [1, 6]: active
activity in ARE-bla assay (words) [2, 6]: active

CC(C)Nc1ccc(Nc2ccccc2)cc1 [N-Isopropyl-N'-phenyl-p-phenylenediamine]
ARE-bla mutant IC50 (mutated ARE): inactive
EC50 ([2]; Homo sapiens, HepG2, 16 h, read-out: ARE-bla EC50): 13.1 ± 8.9 µM
Emax ([2]; Homo sapiens, HepG2, read-out: ARE-bla Efficacy): 71%

Oc1ccc(/C=C/c2cc(O)cc(O)c2)cc1 [resveratrol]
activity in ARE-luc assay (words) [1, 6]: active
activity in ARE-bla assay (words) [2, 6]: active

O=c1cc(-c2ccccc2)oc2ccc3ccccc3c12 [β-Napthoflavone, reference compound]
EC50 ([1]; primary screening, positive control across all 18 plates, read-out: average EC50 in ARE-luc assay): 5.2 µM
EC50 ([2]; primary screening, positive control across all 18 plates, read-out: average EC50 in ARE-bla assay): 2.1 µM
